How the values were obtained:
[1] = Helix contents estimated from far-UV CD spectra; format: physicochemical; settings: 30 μM peptide without His-tag–GB1, 30 °C, pH 7.0, CONTINLL with SDP48 reference set
Description: CD spectra were measured using a J-805 spectropolarimeter (JASCO, Tokyo, Japan) from 200 to 250 nm in a quartz cuvette with a 1-mm path length at 30 °C. Protein concentrations were 30 μM. The CD intensity was converted to MRE using the following equation:1 MRE(deg cm^2dmol^-1)=CD(mdeg)/N·c(M)·l(mm) where N is the number of residues, c is the protein concentration, and l is the path length.
The helix contents of the MLL TAD peptide were calculated from the far-UV CD spectra using the CONTINLL program[42] with the reference data set containing soluble and denatured proteins (SDP48) in the CDPro package.

KIX [2] = settings: previously reported value for binding between KIX and MLL TAD; cited from earlier work
Description: Previous studies have reported several inhibitors that bind the MLL site of KIX, including isoxazolidine derivatives, which are small molecule compounds that mimic the function of the TADs of transcriptional activators, and natural products such as sekikaic acid and lobaric acid[21],[22].

KIX [3] = biological target: T1, KIX (Mus musculus, UniProt P45481); experiment: KIX binding by isothermal titration calorimetry (ITC); settings: 30 °C
T1 construct: The DNA fragment of KIX (residues 586–672 of mouse CBP); 6xHis-tag with thrombin cleavage site (N); made in house; host or cells: E. coli BL21(DE3)pLysS
Description: For the expression of MLL TAD, E. coli BL21(DE3) competent cells were transformed with the plasmid and cultivated at 37 °C in 2 × YT liquid medium supplemented with ampicillin. When an optical density at 600 nm (OD600) of the cell culture reached 0.7–0.8, 1 mM isopropyl β-D-1-thiogalactopyranoside was added to induce protein expression. After 4 h of cultivation, the cells were harvested by centrifugation. The E. coli cell pellet was suspended with buffer HP (50 mM sodium phosphate [pH 7.4], 300 mM NaCl, 10 mM imidazole, and 6 M guanidine hydrochloride). The sonicated lysate was centrifuged at 4 °C, and the supernatant was filtered using a membrane filter and applied to a gravity column (50 mL) containing 5 mL of nickel-nitrilotriacetic acid (Ni–NTA) resin (Qiagen, Hilden, Germany). The column was washed with buffer HP and buffer AP (50 mM sodium phosphate [pH 7.4], 300 mM NaCl, and 10 mM imidazole) to remove impurities. To elute His-tag–GB1–MLL TAD for ITC and SPR measurements, 40 mL of buffer EP (50 mM sodium phosphate [pH 7.4], 300 mM NaCl, and 250 mM imidazole) was added to the column. […] Thus, His-tag–GB1–MLL TAD was used in the ITC measurements, with the exception of the four mutants (I2849L, D2851L, K2855R, and T2857I). To obtain the MLL TAD peptide without His-tag–GB1 for CD measurements, we washed the column, to which the His-tag–GB1–MLL TAD was attached, with buffer TP (50 mM sodium phosphate [pH 7.4] and 300 mM NaCl), added 150 units of thrombin to the column for digestion of the His-tag–GB1, and eluted the MLL TAD peptide with buffer TP. After Ni–NTA column purification, anion exchange chromatography was performed to further purify the aforementioned four mutants without His-tag–GB1 using the AKTAprime plus chromatography system (Cytiva, Marlborough, MA, USA; 10 mM sodium phosphate [pH 6.0] and 0–1 M NaCl). Due to the fact that the CD spectra of the four mutants were unchanged before and after the anion exchange chromatography, we omitted this procedure for other mutants.
Expression and purification of the KIX protein was performed in the same way as MLL, except that E. coli BL21(DE3)pLysS competent cells and 2 × YT liquid medium with ampicillin and chloramphenicol were used. After Ni–NTA column purification, gel filtration chromatography was performed using a Superdex 200 pg column (Cytiva) and the ITC buffer (20 mM Tris–acetate [pH 7.0] and 50 mM NaCl).
ITC measurements were performed using MicroCal iTC200 (Malvern Panalytical Ltd., Malvern, United Kingdom) at 30 °C. Samples were sufficiently dialyzed with the ITC buffer before measurements. The 600 μM MLL solution was titrated into the cell containing 45 µM KIX. The data were analyzed using the Origin 7 software (OriginLab Corp., Northampton, MA, USA; https://www.originlab.com) to obtain the Kd (M), ΔH (kcal/mol), and stoichiometry of binding, N. The ΔG (kcal/mol) and ΔS (kcal/mol/K) were obtained as follows:2 ΔG=-RTln1/Kd 3 ΔS=ΔH-ΔG/T where R is the gas constant, and T is the temperature.

T1 sequence (P45481 586-672): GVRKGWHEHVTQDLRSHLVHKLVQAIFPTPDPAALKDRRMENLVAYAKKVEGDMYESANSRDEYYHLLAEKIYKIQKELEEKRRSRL

helix contents [1]: ~ 5.7%
N (stoichiometry of binding) (KIX [3]; pH 7.0, mean ± standard error of triplicate or more): 1.02 ± 0.01
− TΔS (KIX [3]; entropy term upon KIX binding, pH 7.0, ΔS=(ΔH-ΔG)/T, mean ± standard error of triplicate or more): 5.2 ± 0.1 kcal/mol
SMILES: CC[C@H](C)[C@H](NC(=O)[C@H](CC(=O)O)NC(=O)[C@H](CO)NC(=O)[C@@H]1CCCN1C(=O)[C@H](CC(C)C)NC(=O)[C@@H](NC(=O)[C@H](CC(N)=O)NC(=O)CN)[C@@H](C)CC)C(=O)N[C@@H](CCSC)C(=O)N[C@@H](CC(=O)O)C(=O)N[C@@H](Cc1ccccc1)C(=O)N[C@H](C(=O)N[C@@H](CC(C)C)C(=O)N[C@@H](CCCCN)C(=O)N[C@@H](CC(N)=O)C(=O)N[C@H](C(=O)N1CCC[C@H]1C(=O)N[C@@H](CO)C(=O)N[C@@H](CCSC)C(=O)N[C@@H](CCC(N)=O)C(=O)N[C@@H](C)C(=O)N[C@@H](CC(C)C)C(=O)NCC(=O)N[C@@H](CCC(=O)O)C(=O)N[C@@H](CO)C(=O)N1CCC[C@H]1C(=O)N[C@@H](CCC(=O)O)C(=O)N[C@@H](CO)C(=O)N[C@@H](Cc1ccc(O)cc1)C(=O)O)[C@@H](C)O)C(C)C [wild type, reference compound]
Kd (KIX [2]): 2100 nM
